Data: publication PMC7496931, “Activation of Sirtuin 2 Inhibitors Employing Photoswitchable Geometry and Aqueous Solubility” (Chemmedchem, 2020)

Test: Reductive stability in the presence of glutathione (HPLC)
Format: physicochemical
Conditions: GSH 5 mM, 24 h, ambient temperature, HPLC analysis
Experimental: Reductive stability of 15 c, 15 f and 20 a in the presence of the cellular reductant glutathione (5 mM) was confirmed by HPLC analysis (Figure S5, Table S2). For the cell‐based activity assay, we illuminated the compounds solved in DMSO with UV light (365 nm) prior to incubation with the cells. […] As expected, 15 c and 15 f increased the levels of acetylated lysines H3K18 and H3K56, which are both affirmed substrates of Sirt2. In addition, we found H4K8 hyperacetylation even though this site is usually not affected by sirtuin catalysed deacetylation, indicating a further mode of action. […] In Figure 6, we show the relative results, whereby the acetylation product was related to total target protein and to the vehicle control. Again, we found an increase in acetylated histones induced by 15 c and 15 f which proves activity of these two compounds in living cells.
Glutathione (GSH) is able to reduce certain azobenzenes yielding the respective hydrazines.
Therefore, we determined the reductive stability of 15c, 15f and 20a prior to examination of the biological activity in a cell-based assay. […]
Table S2: Relative percentages (%) of GSH and the respective photoisomers extracted from the HPLC analysis. Samples were analyzed right after addition of GSH (0 h) and after 24 h of incubation at ambient temperature. […]
Fluorescence-Based Activity Assay (ZMAL-Assay)
The influence of the synthesized compounds on the deacetylase activity of the class I sirtuins Sirt1–3 was determined in a homogenous fluorescence-based enzyme assay, using the artificial substrate Z-(Ac)Lys-AMC (ZMAL). […]
The latter is subsequently cleaved by tryptic digestion, releasing 7-amino-4-methylcoumarin (AMC), excitation of which leads to a fluorescent read out (λex=390 nm; λem=460 nm). […]
contribute to the fluorescence signal. Therefore, the fluorescence intensity is proportional to the activity of the respective sirtuin.
After subtraction of the blank fluorescence signal (without enzyme) from the signal of the respective probe, the residual signal intensity is related to a 100 % conversion control (AMC),

CC(C)(C)OC(=O)NCc1ccc(/N=N/c2cncc(C(N)=O)c2)cc1 [15 c]
Reductive stability in the presence of glutathione: confirmed

CCCCCCCCCC(=O)NCc1ccc(/N=N/c2cncc(C(N)=O)c2)cc1 [15 f]
Reductive stability in the presence of glutathione: confirmed

NC(=O)c1cncc(OCc2cccc(/N=N/c3ccc(OCc4ccccc4)cc3)c2)c1 [20 a]
Reductive stability in the presence of glutathione: confirmed
